# pIC50: −log10 of the molar value. Where two headings read alike, the source gives them in different places.
# What was measured:
# human recombinant HDAC1 = molecular target: T1, human recombinant HDAC1 (Homo sapiens, UniProt Q13547); assay: HDAC1 enzyme activity inhibition (HDAC Fluorimetric Drug Discovery Kit); format: biochemical; details: read-out: HDAC1
# T1 construct: purchased Enzo Life Science, Inc. BML-SE456
# Procedure, shortened: (§1)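 Fluorimetric deacetylase read-out. 5-fold compound dilutions; […] enzyme, 10 μM substrate; 30° C, 60 min; developer 30 min.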
# human recombinant HDAC6 = molecular target: T2, human recombinant HDAC6 (Homo sapiens, UniProt Q9UBN7); assay: HDAC6 enzyme activity inhibition (HDAC Fluorimetric Drug Discovery Kit); format: biochemical
# T2 construct: purchased Calbiochem Inc. 382180
# T2 sequence (Q9UBN7 1-1215): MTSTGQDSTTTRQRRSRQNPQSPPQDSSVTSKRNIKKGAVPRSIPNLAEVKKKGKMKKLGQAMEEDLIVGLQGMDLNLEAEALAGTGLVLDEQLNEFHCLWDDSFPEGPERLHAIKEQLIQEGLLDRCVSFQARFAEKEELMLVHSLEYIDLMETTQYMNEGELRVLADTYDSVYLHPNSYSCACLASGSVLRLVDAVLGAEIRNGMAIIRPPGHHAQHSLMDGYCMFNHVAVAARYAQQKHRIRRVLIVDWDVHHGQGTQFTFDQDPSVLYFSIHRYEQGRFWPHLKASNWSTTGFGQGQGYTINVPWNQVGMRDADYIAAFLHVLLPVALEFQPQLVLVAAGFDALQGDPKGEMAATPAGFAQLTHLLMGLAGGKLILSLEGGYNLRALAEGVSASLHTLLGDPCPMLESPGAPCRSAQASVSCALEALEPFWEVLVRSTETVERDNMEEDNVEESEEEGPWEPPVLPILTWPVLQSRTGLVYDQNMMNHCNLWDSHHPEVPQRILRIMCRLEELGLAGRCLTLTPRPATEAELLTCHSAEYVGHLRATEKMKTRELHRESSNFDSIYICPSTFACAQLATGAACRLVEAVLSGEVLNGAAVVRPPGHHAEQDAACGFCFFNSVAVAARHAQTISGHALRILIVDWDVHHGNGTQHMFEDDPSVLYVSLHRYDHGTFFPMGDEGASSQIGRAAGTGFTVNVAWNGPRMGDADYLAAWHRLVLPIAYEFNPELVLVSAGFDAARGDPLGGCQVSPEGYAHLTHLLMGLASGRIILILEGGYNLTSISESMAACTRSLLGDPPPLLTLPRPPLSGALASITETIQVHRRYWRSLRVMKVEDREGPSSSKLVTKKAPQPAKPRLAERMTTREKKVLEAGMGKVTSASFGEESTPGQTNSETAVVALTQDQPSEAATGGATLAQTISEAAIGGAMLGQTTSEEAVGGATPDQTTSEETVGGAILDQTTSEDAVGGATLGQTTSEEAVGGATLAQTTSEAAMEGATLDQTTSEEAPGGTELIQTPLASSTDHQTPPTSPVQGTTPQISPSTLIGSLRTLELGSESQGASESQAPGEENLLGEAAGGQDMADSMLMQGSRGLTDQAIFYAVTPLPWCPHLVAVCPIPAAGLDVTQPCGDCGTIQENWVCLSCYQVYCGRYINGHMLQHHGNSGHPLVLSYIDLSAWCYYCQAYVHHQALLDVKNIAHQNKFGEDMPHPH
# Procedure, shortened: as §1
# [1] = human recombinant HDAC1, IC50 calculated with GraphPad Prism
# [2] = human recombinant HDAC6, IC50 calculated with GraphPad Prism
# [3] = human recombinant HDAC1, Fluor de Lys substrate, 30° C. 60 minutes
# [4] = human recombinant HDAC6, same protocol as HDAC1
# T1 sequence (Q13547 whole entry): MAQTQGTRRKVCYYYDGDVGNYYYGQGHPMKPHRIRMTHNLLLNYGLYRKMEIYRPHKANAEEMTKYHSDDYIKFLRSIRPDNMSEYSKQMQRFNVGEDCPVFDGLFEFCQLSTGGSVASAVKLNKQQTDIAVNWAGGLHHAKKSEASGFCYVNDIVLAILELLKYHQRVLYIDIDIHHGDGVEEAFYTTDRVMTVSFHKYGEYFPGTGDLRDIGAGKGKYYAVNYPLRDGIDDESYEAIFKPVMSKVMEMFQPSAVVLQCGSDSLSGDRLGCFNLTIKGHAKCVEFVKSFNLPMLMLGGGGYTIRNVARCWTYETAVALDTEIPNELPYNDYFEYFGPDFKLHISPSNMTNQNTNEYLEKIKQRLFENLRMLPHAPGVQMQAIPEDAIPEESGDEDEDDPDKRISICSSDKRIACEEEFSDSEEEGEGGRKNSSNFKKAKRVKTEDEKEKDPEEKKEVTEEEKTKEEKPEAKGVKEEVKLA
Compound,pIC50 (human recombinant HDAC1; [1]),HDAC6 selectivity (fold) (human recombinant HDAC6; HDAC1 IC50 / HDAC6 IC50),pIC50 (human recombinant HDAC6; [2]),pIC50 (human recombinant HDAC1; [3]),HDAC6 selectivity (fold) (human recombinant HDAC6; HDAC6 over HDAC1),pIC50 (human recombinant HDAC6; [4])
"CC(C)(C)OC(=O)N1CCC(c2cn(Cc3ccc(-c4nnc(C(F)F)o4)cn3)nn2)CC1 [Compound 3805, tert-butyl 4-(1-((5-(5-(difluoromethyl)-1,3,4-oxadiazol-2-yl)pyridin-2-yl)methyl)-1H-1,2,3-triazol-4-yl)piperidin-1-carboxylate]",< 4.30,844,7.23,–,–,–
"Fc1cc(-c2nnc(C(F)F)o2)ccc1Cn1cc(-c2ccnc3[nH]ccc23)nn1 [Compound 4526, 2-(4-((4-(1H-pyrrolo[2,3-b]pyridin-4-yl)-1H-1,2,3-triazol-1-yl)methyl)-3-fluorophenyl)-5-(difluoromethyl)-1,3,4-oxadiazole]",–,–,–,< 4.30,3846,7.89
"O=C(Nc1cccc(-c2cn(Cc3ccc(-c4nnc(C(F)F)o4)cn3)nn2)c1)C1CNC1 [Compound 4463, N-(3-(1-((5-(5-(difluoromethyl)-1,3,4-oxadiazol-2-yl)pyridin-2-yl)methyl)-1H-1,2,3-triazol-4-yl)phenyl)azetidin-3-carboxamide]",< 4.30,1046,7.32,–,–,–
"CN(C)Cc1cccc(-c2cn(Cc3ncc(-c4nnc(C(F)F)o4)cc3F)nn2)c1Cl [Compound 19088, 1-(2-chloro-3-(1-((5-(5-(difluoromethyl)-1,3,4-oxadiazol-2-yl)-3-fluoropyridin-2-yl)methyl)-1H-1,2,3-triazol-4-yl)phenyl)-N,N-dimethylmethanamine]",–,–,–,< 4.30,639,7.11
"FC(F)c1nnc(-c2ccc(Cn3cc(-c4cccc(CN5CC(F)(F)C5)c4)nn3)cc2)o1 [Compound 4417, 2-(4-((4-(3-((3,3-difluoroazetidin-1-yl)methyl)phenyl)-1H-1,2,3-triazol-1-yl)methyl)phenyl)-5-(difluoromethyl)-1,3,4-oxadiazole]",< 4.30,487,6.99,–,–,–
"CCN1CCN(c2cccc(-c3cn(Cc4ccc(-c5nnc(C(F)F)o5)cn4)nn3)c2F)CC1 [Compound 4570, 2-(difluoromethyl)-5-(6-((4-(3-(4-ethylpiperazin-1-yl)-2-fluorophenyl)-1H-1,2,3-triazol-1-yl)methyl)pyridin-3-yl)-1,3,4-oxadiazole]",–,–,–,< 4.30,2475,7.69
"FC(F)c1nnc(-c2ccc(Cn3cc(-c4cccc(CN5CCC(F)(F)CC5)c4)nn3)cc2)o1 [Compound 4413, 2-(difluoromethyl)-5-(4-((4-(3-((4,4-difluoropiperidin-1-yl)methyl)phenyl)-1H-1,2,3-triazol-1-yl)methyl)phenyl)-1,3,4-oxadiazole]",< 4.30,348,6.84,–,–,–
CC1CCN(Cc2cccc(-c3cn(Cc4ncc(-c5nnc(C(F)F)o5)cc4F)nn3)c2)CC1 [Compound 18459],–,–,–,< 4.30,778,7.19
"FC(F)c1nnc(-c2ccc(Cn3cc(-c4ccc(Br)cn4)nn3)nc2)o1 [Compound 4180, 2-(6-((4-(5-bromopyridin-2-yl)-1H-1,2,3-triazol-1-yl)methyl)pyridin-3-yl)-5-(difluoromethyl)-1,3,4-oxadiazole]",< 4.30,1506,7.48,–,–,–
"CC1CCN(Cc2ccc(-c3cn(Cc4ncc(-c5nnc(C(F)F)o5)cc4F)nn3)s2)CC1 [Compound 18310, 2-(difluoromethyl)-5-(5-fluoro-6-((4-(5-((4-methylpiperidin-1-yl)methyl)thiophen-2-yl)-1H-1,2,3-triazol-1-yl)methyl)pyridin-3-yl)-1,3,4-oxadiazole]",–,–,–,< 4.30,986,7.29
"FC(F)c1nnc(-c2ccc(Cn3cc(-c4ccc5[nH]ncc5c4)nn3)nc2)o1 [Compound 4343, 2-(6-((4-(1H-indazol-5-yl)-1H-1,2,3-triazol-1-yl)methyl)pyridin-3-yl)-5-(difluoromethyl)-1,3,4-oxadiazole]",< 4.30,5882,8.07,–,–,–
"CCN1CCN(c2cccc(-c3cn(Cc4ccc(-c5nnc(C(F)F)o5)cc4)nn3)c2)CC1 [Compound 4368, 2-(difluoromethyl)-5-(4-((4-(3-(4-ethylpiperazin-1-yl)phenyl)-1H-1,2,3-triazol-1-yl)methyl)phenyl)-1,3,4-oxadiazole]",< 4.30,1533,7.49,–,–,–
"CN1CCN(c2cccc(-c3cn(Cc4ccc(-c5nnc(C(F)F)o5)cc4F)nn3)c2F)CC1 [Compound 4576, 2-(difluoromethyl)-5-(3-fluoro-4-((4-(2-fluoro-3-(4-methylpiperazin-1-yl)phenyl)-1H-1,2,3-triazol-1-yl)methyl)phenyl)-1,3,4-oxadiazol]",–,–,–,< 4.30,2857,7.76
CC(C)N1CCN(Cc2cccc(-c3cn(Cc4ccc(-c5nnc(C(F)F)o5)cc4F)nn3)c2)CC1 [Compound 4408],< 4.30,970,7.29,–,–,–
"CC(C)(C)C(=O)N1CCC(c2cn(Cc3ccc(-c4nnc(C(F)F)o4)cn3)nn2)CC1 [Compound 3893, 1-(4-(1-((5-(5-(difluoromethyl)-1,3,4-oxadiazol-2-yl)pyridin-2-yl)methyl)-1H-1,2,3-triazol-4-yl)piperidin-1-yl)-2,2-dimethylpropan-1-one]",< 4.30,326,6.81,–,–,–
"CC(C)N1CCc2ccc(-c3cn(Cc4ccc(-c5nnc(C(F)F)o5)cc4F)nn3)cc2C1 [Compound 4365, 2-(difluoromethyl)-5-(3-fluoro-4-((4-(2-isopropyl-1,2,3,4-tetrahydroisoquinolin-7-yl)-1H-1,2,3-triazol-1-yl)methyl)phenyl)-1,3,4-oxadiazole]",< 4.30,1089,7.34,–,–,–
"OCc1ccc(-c2cn(Cc3ccc(-c4nnc(C(F)F)o4)cc3F)nn2)nc1 [Compound 17545, (6-(1-(4-(5-(difluoromethyl)-1,3,4-oxadiazol-2-yl)-2-fluorobenzyl)-1H-1,2,3-triazol-4-yl)pyridin-3-yl)methanol]",–,–,–,< 4.30,880,7.25
"CN(C)Cc1cccc(-c2cn(Cc3ccc(-c4nnc(C(F)F)o4)cc3F)nn2)c1Cl [Compound 18554, 1-(2-chloro-3-(1-(4-(5-(difluoromethyl)-1,3,4-oxadiazol-2-yl)-2-fluorobenzyl)-1H-1,2,3-triazol-4-yl)phenyl)-N,N-dimethylmethanamine]",–,–,–,< 4.30,1012,7.31
"CCCCc1cn(Cc2ccc(-c3nnc(C(F)F)o3)cn2)nn1 [Compound 3832, 2-(6-((4-butyl-1H-1,2,3-triazol-1-yl)methyl)pyridin-3-yl)-5-(difluoromethyl)-1,3,4-oxadiazole]",< 4.30,263,6.72,–,–,–
"CN(C)CCN(C)Cc1cccc(-c2cn(Cc3ccc(-c4nnc(C(F)F)o4)cn3)nn2)c1 [Compound 3918, N1-(3-(1-((5-(5-(difluoromethyl)-1,3,4-oxadiazol-2-yl)pyridin-2-yl)methyl)-1H-1,2,3-triazol-4-yl)benzyl)-N1,N2,N2-trimethylethane-1,2-diamine]",< 4.30,1190,7.38,–,–,–
"CC(C)(C)OC(=O)N1CCC(c2cn(Cc3ccc(-c4nnc(C(F)F)o4)cn3)nn2)C1 (stereo not drawn) [Compound 3820, Tert-butyl 3-(1-((5-(5-(difluoromethyl)-1,3,4-oxadiazol-2-yl)pyridin-2-yl)methyl)-1H-1,2,3-triazol-4-yl)pyrrolidin-1-carboxylate]",< 4.30,294,6.77,–,–,–

# From patent US20230257372A1 (CHONG KUN DANG PHARMACEUTICAL CORP., priority 2020, published 2023)
